In the data set the test system is BV2 microglial cells.

Marks after values point to notes of the source that are not given here.

These results are taken from article PMC4697443 (Bioorganic & medicinal chemistry, 2015).

Consider “3-Chloro-N-(1-methyl-1H-benzo[d]imidazol-2-yl)benzamide [Compound 7]”, for which the Viability was 1000^d μM.
